Consider 8 compounds from patent publication US5254558A, “Substituted 1,3-diazines as leukocyte elastase inhibitors” (Imperial Chemical Industries PLC, priority 1991, dated 1993).

For assay [1], the system named is HLE. In words: in vivo tests (Acute Lung Injury Model, Acute Hemorrhagic Assay). The note with it: basis for compounds of particular interest.
Assay [2] deals with human neutrophil elastase (HNE). In words: Acute Hemorrhagic Assay: lung hemorrhage after intratracheal HNE in hamsters. Format: in vivo, hamster. To be noted: 2.5 mg/kg by mouth, male Syrian hamsters. As to the method: This assay relies on monitoring only the amount of hemorrhage in the lung following intratracheal administration of human neutrophil elastase (HNE). Hemorrhage is quantified by disrupting erythrocytes recovered in lung lavage fluid and comparing that to dilutions of whole hamster blood. The screening protocol, similar to that described in Fletcher et al., American Review of Respiratory Disease (1990), 141, 672-677, is as follows. […] The compounds are then dosed by mouth to male Syrian hamsters at a fixed time, such as 30 or 90 min, prior to intratracheal administration of 50 μg/animal of HNE in 300 μL phosphate buffered saline (PBS) pH 7.4. Four hours enzyme administration, the animals are killed with an overdose of pentobarbital sodium, the thorax opened and the lungs and trachea removed. […] The recovered lavages are pooled, the volumes (about 5 mL) are recorded and the lavages stored at 4° C. until assayed. […] The optical densities (OD) of the disrupted lavages and blood samples are determined at 405 nm. The (μL blood equivalents)/(mL lavage) are determined by comparing the OD of the test samples with the OD of the standard curve prepared from whole hamster blood. The total μL equivalents of blood recovered is determined by multiplying recovered lavage volume by the (μL blood equivalents)/(mL lavage) for each sample. […]

The target in assay [3] is T1, human leukocyte elastase (HLE) (Homo sapiens, UniProt P08246).
T1 sequence (P08246 30-247 limits assumed): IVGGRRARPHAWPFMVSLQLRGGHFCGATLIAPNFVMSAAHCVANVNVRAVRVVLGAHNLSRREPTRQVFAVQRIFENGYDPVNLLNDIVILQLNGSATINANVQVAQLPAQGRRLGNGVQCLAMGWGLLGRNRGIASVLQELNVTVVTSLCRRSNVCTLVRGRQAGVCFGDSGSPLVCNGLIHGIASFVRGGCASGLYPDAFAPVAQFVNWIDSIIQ
In words: Inhibition measurements: Ki against HLE on substrate methoxy-succinyl-alanyl-alanyl-prolyl-valine-p-nitroanilide. Format: biochemical. The note with it: read-out: Ki, dissociation constant of the complex of inhibitor with HLE. As to the method:
The potency of a Compound to act as an inhibitor of human leukocyte elastase (HLE) on the low molecular weight peptide substrate methoxy-succinyl-alanyl-alanyl-prolyl-valine-p-nitroanilide is determined as described in U.S. Pat. No. 4,910,190. The potency of an inhibitor is evaluated by obtaining a kinetic determination of the dissociation constant, Ki, of the complex formed from the interaction of the inhibitor with HLE. If a Compound is found to be a "slow-binding" inhibitor of HLE, special methods of analysis to accurately determine Ki values for the inhibition of HLE are carried out as described in U.S. Pat. No. 4,910,190. In general, the Ki values for Compounds of the invention which were tested are generally on the order of 10^-7 M or much less.

As for `CSC(=O)Nc1cnc(-c2ccccc2)n(CC(=O)NC(C(=O)C(F)(F)F)C(C)C)c1=O` (centres unmarked) [Example 100], the “activity in in vivo tests” value in assay [1] is listed as “activity in in vivo tests”. Consider `CC(C)C(NC(=O)Cn1c(-c2cccs2)ncc(N)c1=O)C(=O)C(F)(F)F` (centres unmarked) [Example 12, 2-[5-Amino-6-oxo-2-(2-thienyl)-1,6-dihydro-1-pyrimidinyl]-N-(3,3,3-trifluoro-1-isopropyl-2-oxopropyl)acetamide], for which the “activity in in vivo tests” value in assay [1] is on record as “activity in in vivo tests”. On to `CC(C)C(NC(=O)Cn1c(-c2cccs2)ncc(NC=O)c1=O)C(=O)C(F)(F)F` (centres unmarked) [Example 157], for which the “activity in in vivo tests” value in assay [1] was “activity in in vivo tests”. On the same count and under the same terms, the entry for `CC(C)C(NC(=O)Cn1c(-c2cccs2)ncc(NC(=O)OCC(F)(F)F)c1=O)C(=O)C(F)(F)F` (centres unmarked) [Example 106] is “activity in in vivo tests”. On the same count and under the same terms, the entry for `CSC(=O)Nc1cnc(-c2ccc(F)cc2)n(CC(=O)NC(C(=O)C(F)(F)F)C(C)C)c1=O` (centres unmarked) [Example 102] is “activity in in vivo tests”.

As for `CCNc1cnc(-c2cccs2)n(CC(=O)NC(C(=O)C(F)(F)F)C(C)C)c1=O` (centres unmarked) [Example 82], the “activity in in vivo tests” value in assay [1] is “activity in in vivo tests”. `CC(C)C(NC(=O)Cn1c(-c2ccccc2)ncc(NC=O)c1=O)C(=O)C(F)(F)F` (centres unmarked) [Example 159]: in assay [1], the “activity in in vivo tests” value is given as “activity in in vivo tests”.

Take `CC(C)OC(=O)Nc1cnc(-c2cccs2)n(CC(=O)NC(C(=O)C(F)(F)F)C(C)C)c1=O` (centres unmarked) [Example 51]: in assay [1], the “activity in in vivo tests” value is “activity in in vivo tests”. The inhibition of hemorrhage entry in assay [2] (30 min prior to HNE) and in assay [2] (90 min prior to HNE) was “statistically significant inhibition of hemorrhage” each time. Moreover, the Ki in assay [3] was 27 nM.

In general, Ki refers to a measure of affinity in units of concentration, obtained from inhibition or displacement.
